Measurements reported in PubChem BioAssay (NCI).
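96-well plates; 48 h exposure; 5 concentrations. Endpoints by linear interpolation between flanking doses. Not reached: highest tested concentration assigned. Abbreviation: GI50, concentration required for 50% inhibition of growth. At the TGI there is no net growth.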

Tests used:
Assay in all cases: NCI tumour cell line growth inhibition, 48 h
786-0 renal = test system: 786-0 renal
A498 renal = test system: A498 renal
A549 NSCLC = test system: A549 NSCLC
ACHN renal = test system: ACHN renal
BT-549 breast = test system: BT-549 breast
CAKI-1 renal = test system: CAKI-1 renal
CCRF-CEM leukemia = test system: CCRF-CEM leukemia
COLO 205 colon = test system: COLO 205 colon
DU-145 prostate = test system: DU-145 prostate
EKVX NSCLC = test system: EKVX NSCLC
HCC-2998 colon = test system: HCC-2998 colon
HCT-116 colon = test system: HCT-116 colon
HCT-15 colon = test system: HCT-15 colon
HL-60(TB) leukemia = test system: HL-60(TB) leukemia
HOP-62 NSCLC = test system: HOP-62 NSCLC
HOP-92 NSCLC = test system: HOP-92 NSCLC
HS 578T breast = test system: HS 578T breast
HT29 colon = test system: HT29 colon
IGROV1 ovarian = test system: IGROV1 ovarian
K-562 leukemia = test system: K-562 leukemia
KM12 colon = test system: KM12 colon
LOX IMVI melanoma = test system: LOX IMVI melanoma
M14 melanoma = test system: M14 melanoma
MALME-3M melanoma = test system: MALME-3M melanoma
MCF7 breast = test system: MCF7 breast
MDA-MB-231 breast = test system: MDA-MB-231 breast
MDA-MB-435 = test system: MDA-MB-435
MOLT-4 leukemia = test system: MOLT-4 leukemia
NCI-H226 lung = test system: NCI-H226 lung
NCI-H23 lung = test system: NCI-H23 lung
NCI-H460 lung = test system: NCI-H460 lung
NCI-H522 lung = test system: NCI-H522 lung
NCI/ADR-RES ovarian = test system: NCI/ADR-RES ovarian
OVCAR-3 ovarian = test system: OVCAR-3 ovarian
OVCAR-4 ovarian = test system: OVCAR-4 ovarian
OVCAR-5 ovarian = test system: OVCAR-5 ovarian
OVCAR-8 ovarian = test system: OVCAR-8 ovarian
PC-3 prostate = test system: PC-3 prostate
RPMI-8226 leukemia = test system: RPMI-8226 leukemia
RXF 393 renal = test system: RXF 393 renal
SF-268 CNS = test system: SF-268 CNS
SF-295 CNS = test system: SF-295 CNS
SF-539 CNS = test system: SF-539 CNS
SK-MEL-2 melanoma = test system: SK-MEL-2 melanoma
SK-MEL-28 melanoma = test system: SK-MEL-28 melanoma
SK-MEL-5 melanoma = test system: SK-MEL-5 melanoma
SK-OV-3 ovarian = test system: SK-OV-3 ovarian
SN12C renal = test system: SN12C renal
SNB-19 CNS = test system: SNB-19 CNS
SNB-75 CNS = test system: SNB-75 CNS
SR leukemia = test system: SR leukemia
SW-620 colon = test system: SW-620 colon
T-47D breast = test system: T-47D breast
TK-10 renal = test system: TK-10 renal
U251 CNS = test system: U251 CNS
UACC-257 melanoma = test system: UACC-257 melanoma
UACC-62 melanoma = test system: UACC-62 melanoma
UO-31 renal = test system: UO-31 renal

## CC(=C(c1ccc(OCCN2CCCC2)cc1)c1ccc(OCCN2CCCC2)cc1)c1ccc(Cl)cc1
786-0 renal
  GI50: 2110 nM
  TGI: 4520 nM
A498 renal
  GI50: 2450 nM
  TGI: 4850 nM
A549 NSCLC
  GI50: 2740 nM
  TGI: 5740 nM
ACHN renal
  GI50: 2530 nM
  TGI: 4780 nM
BT-549 breast
  GI50: 2630 nM
  TGI: 5120 nM
CAKI-1 renal
  GI50: 2500 nM
  TGI: 4850 nM
CCRF-CEM leukemia
  GI50: 1400 nM
  TGI: 4720 nM
COLO 205 colon
  GI50: 2730 nM
  TGI: 6140 nM
DU-145 prostate
  GI50: 2600 nM
  TGI: 5140 nM
EKVX NSCLC
  GI50: 2270 nM
  TGI: 4650 nM
HCC-2998 colon
  GI50: 2700 nM
  TGI: 5320 nM
HCT-116 colon
  GI50: 1150 nM
  TGI: 3580 nM
HCT-15 colon
  GI50: 655 nM
  TGI: 2530 nM
HL-60(TB) leukemia
  GI50: 3010 nM
  TGI: 6340 nM
HOP-62 NSCLC
  GI50: 2930 nM
  TGI: 5970 nM
HOP-92 NSCLC
  GI50: 1490 nM
  TGI: 3920 nM
HS 578T breast
  GI50: 2680 nM
  TGI: 6590 nM
HT29 colon
  GI50: 660 nM
  TGI: 2520 nM
IGROV1 ovarian
  GI50: 2560 nM
  TGI: 5110 nM
K-562 leukemia
  GI50: 498 nM
  TGI: 1750 nM
KM12 colon
  GI50: 2660 nM
  TGI: 5630 nM
LOX IMVI melanoma
  GI50: 516 nM
  TGI: 2620 nM
M14 melanoma
  GI50: 2130 nM
  TGI: 4590 nM
MALME-3M melanoma
  GI50: 2630 nM
  TGI: 5180 nM
MCF7 breast
  GI50: 409 nM
  TGI: 2730 nM
MDA-MB-231 breast
  GI50: 2370 nM
  TGI: 4950 nM
MDA-MB-435
  GI50: 2620 nM
  TGI: 5030 nM
MOLT-4 leukemia
  GI50: 1380 nM
  TGI: 4390 nM
NCI-H226 lung
  GI50: 3040 nM
  TGI: 6180 nM
NCI-H23 lung
  GI50: 2690 nM
  TGI: 5200 nM
NCI-H460 lung
  GI50: 2960 nM
  TGI: 5580 nM
NCI-H522 lung
  GI50: 2960 nM
  TGI: 5990 nM
NCI/ADR-RES ovarian
  GI50: 2810 nM
  TGI: 5720 nM
OVCAR-3 ovarian
  GI50: 2640 nM
  TGI: 5300 nM
OVCAR-4 ovarian
  GI50: 2650 nM
  TGI: 5390 nM
OVCAR-5 ovarian
  GI50: 2560 nM
  TGI: 4900 nM
OVCAR-8 ovarian
  GI50: 3250 nM
  TGI: 7160 nM
PC-3 prostate
  GI50: 2290 nM
  TGI: 4790 nM
RPMI-8226 leukemia
  GI50: 2570 nM
  TGI: 6740 nM
RXF 393 renal
  GI50: 2010 nM
  TGI: 4200 nM
SF-268 CNS
  GI50: 2700 nM
  TGI: 5460 nM
SF-295 CNS
  GI50: 2690 nM
  TGI: 5140 nM
SF-539 CNS
  GI50: 2340 nM
  TGI: 4670 nM
SK-MEL-2 melanoma
  GI50: 3100 nM
  TGI: 6220 nM
SK-MEL-28 melanoma
  GI50: 2640 nM
  TGI: 5100 nM
SK-MEL-5 melanoma
  GI50: 2740 nM
  TGI: 5210 nM
SK-OV-3 ovarian
  GI50: 2900 nM
  TGI: 5490 nM
SN12C renal
  GI50: 2500 nM
  TGI: 4980 nM
SNB-19 CNS
  GI50: 2790 nM
  TGI: 5300 nM
SNB-75 CNS
  GI50: 6850 nM
  TGI: 16700 nM
SR leukemia
  GI50: 745 nM
  TGI: 16700 nM
SW-620 colon
  GI50: 2160 nM
  TGI: 4540 nM
T-47D breast
  GI50: 1940 nM
  TGI: 5020 nM
TK-10 renal
  GI50: 2580 nM
  TGI: 5210 nM
U251 CNS
  GI50: 2200 nM
  TGI: 4880 nM
UACC-257 melanoma
  GI50: 2970 nM
  TGI: 5850 nM
UACC-62 melanoma
  GI50: 2850 nM
  TGI: 5520 nM
UO-31 renal
  GI50: 2240 nM
  TGI: 4460 nM
